These are literature values, as cited in patent US8241397B2, “Adsorptive gas sampler using ionic nano-droplets” (Honeywell International Inc., priority 2008, dated 2012).

The conditions of the data set: water uptake.
Turning to `CCCCCCCCn1cc[n+](C)c1.O=S(=O)([N-]S(=O)(=O)C(F)(F)F)C(F)(F)F` [[C8MIM][TF2N]], the “Solubility of solvent H2O in ionic liquid (% w/w)” value (“Solubility … (% w/w)” below) is 0.74% w/w.

Regarding `CCCCn1cc[n+](C)c1.O=S(=O)([N-]S(=O)(=O)C(F)(F)F)C(F)(F)F` [[C4MIM][TF2N], [C4MIM] bis(trifluoromethylsulfonyl) imide], the “Solubility … (% w/w)” value was 1.17% w/w.

Turning to `CCCCCCn1cc[n+](C)c1.O=S(=O)([N-]S(=O)(=O)C(F)(F)F)C(F)(F)F` [[C6MIM][TF2N]], the “Solubility … (% w/w)” value is recorded as 0.88% w/w.
